From ChEMBL document CHEMBL1146304, “Alpha-methyltryptamine sulfonamide derivatives as novel glucocorticoid receptor ligands” (Bioorg Med Chem Lett, 2007)

Key:
Glucocorticoid receptor = molecular target: T1, Glucocorticoid receptor (Homo sapiens, UniProt P04150)
T1 sequence (P04150 whole entry): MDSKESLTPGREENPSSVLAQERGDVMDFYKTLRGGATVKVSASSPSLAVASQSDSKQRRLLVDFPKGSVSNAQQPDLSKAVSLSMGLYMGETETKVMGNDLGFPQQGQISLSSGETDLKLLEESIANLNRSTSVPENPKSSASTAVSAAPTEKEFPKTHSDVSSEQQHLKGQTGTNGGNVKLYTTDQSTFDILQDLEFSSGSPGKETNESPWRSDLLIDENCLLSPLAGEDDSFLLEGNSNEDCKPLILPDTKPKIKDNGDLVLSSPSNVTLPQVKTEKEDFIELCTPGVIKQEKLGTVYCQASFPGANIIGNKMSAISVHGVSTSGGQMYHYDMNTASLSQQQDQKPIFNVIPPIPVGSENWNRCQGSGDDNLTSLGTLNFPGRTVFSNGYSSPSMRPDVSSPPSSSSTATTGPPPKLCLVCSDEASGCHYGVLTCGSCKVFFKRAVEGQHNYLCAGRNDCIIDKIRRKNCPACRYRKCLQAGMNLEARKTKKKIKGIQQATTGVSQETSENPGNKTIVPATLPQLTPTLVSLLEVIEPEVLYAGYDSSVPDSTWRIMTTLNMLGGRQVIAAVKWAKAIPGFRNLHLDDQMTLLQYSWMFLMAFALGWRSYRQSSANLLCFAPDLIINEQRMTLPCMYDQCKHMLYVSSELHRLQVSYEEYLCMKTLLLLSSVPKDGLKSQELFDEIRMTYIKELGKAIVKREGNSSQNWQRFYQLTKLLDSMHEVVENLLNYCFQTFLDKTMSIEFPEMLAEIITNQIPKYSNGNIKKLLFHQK

Progesterone receptor = molecular target: T2, Progesterone receptor (Homo sapiens, UniProt P06401); assay: Inhibition of human PR
T2 sequence (P06401 whole entry): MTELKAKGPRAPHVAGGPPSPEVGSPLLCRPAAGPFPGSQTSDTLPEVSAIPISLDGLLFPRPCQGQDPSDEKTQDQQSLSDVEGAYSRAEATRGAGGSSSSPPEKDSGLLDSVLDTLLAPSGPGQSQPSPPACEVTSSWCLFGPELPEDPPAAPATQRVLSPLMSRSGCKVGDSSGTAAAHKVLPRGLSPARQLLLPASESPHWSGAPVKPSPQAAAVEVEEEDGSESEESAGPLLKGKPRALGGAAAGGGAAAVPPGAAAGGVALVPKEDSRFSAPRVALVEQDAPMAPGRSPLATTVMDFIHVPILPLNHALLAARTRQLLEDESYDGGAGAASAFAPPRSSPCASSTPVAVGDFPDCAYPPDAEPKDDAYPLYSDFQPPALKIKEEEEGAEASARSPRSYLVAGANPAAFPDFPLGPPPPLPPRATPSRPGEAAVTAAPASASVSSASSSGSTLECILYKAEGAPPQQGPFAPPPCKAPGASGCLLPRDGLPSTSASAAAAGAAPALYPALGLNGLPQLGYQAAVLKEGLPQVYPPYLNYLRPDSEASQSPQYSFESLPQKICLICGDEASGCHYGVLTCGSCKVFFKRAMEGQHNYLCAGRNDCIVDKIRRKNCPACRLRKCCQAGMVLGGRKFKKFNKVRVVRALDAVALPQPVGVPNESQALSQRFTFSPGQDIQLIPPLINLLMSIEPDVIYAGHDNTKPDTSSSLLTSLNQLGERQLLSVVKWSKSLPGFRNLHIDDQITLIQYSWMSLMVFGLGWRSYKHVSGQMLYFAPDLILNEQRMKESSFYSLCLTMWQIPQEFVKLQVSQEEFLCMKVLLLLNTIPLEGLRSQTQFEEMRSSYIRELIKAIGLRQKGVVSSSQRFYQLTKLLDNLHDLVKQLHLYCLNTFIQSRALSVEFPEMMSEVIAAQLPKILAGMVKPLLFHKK

[1] = molecular target: T3, Mineralocorticoid receptor (Homo sapiens, UniProt P08235); assay: Inhibition of human MR
T3 sequence (P08235 whole entry): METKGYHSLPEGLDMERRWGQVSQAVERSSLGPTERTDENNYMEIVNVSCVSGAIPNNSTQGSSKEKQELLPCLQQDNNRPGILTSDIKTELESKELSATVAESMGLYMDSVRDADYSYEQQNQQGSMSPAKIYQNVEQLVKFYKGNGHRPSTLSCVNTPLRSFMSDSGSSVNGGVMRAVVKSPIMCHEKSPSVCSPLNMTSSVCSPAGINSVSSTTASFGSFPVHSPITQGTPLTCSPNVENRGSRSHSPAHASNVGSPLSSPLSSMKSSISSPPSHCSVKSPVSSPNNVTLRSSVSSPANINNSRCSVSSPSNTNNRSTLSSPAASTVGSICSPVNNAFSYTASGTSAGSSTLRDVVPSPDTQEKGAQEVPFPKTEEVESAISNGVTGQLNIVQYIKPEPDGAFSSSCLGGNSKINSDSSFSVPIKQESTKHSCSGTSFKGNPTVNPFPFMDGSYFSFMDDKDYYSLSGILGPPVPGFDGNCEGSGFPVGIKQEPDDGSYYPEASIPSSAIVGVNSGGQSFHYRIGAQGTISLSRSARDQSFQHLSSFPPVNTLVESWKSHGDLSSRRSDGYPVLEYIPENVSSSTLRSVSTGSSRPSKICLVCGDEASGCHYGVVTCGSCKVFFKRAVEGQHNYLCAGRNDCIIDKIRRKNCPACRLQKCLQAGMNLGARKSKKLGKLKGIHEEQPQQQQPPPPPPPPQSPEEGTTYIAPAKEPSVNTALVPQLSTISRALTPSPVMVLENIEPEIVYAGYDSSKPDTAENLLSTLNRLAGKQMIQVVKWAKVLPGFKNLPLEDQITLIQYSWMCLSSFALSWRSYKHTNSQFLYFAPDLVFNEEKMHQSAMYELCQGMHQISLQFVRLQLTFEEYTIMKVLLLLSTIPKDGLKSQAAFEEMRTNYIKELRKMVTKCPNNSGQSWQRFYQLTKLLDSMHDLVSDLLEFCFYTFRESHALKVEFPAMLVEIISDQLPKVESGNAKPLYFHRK

Homo sapiens [2] = species on record: Homo sapiens; assay: Selectivity for human glucocorticoid receptor over human progesterone receptor
Homo sapiens [3] = species on record: Homo sapiens; assay: Selectivity for human glucocorticoid receptor over human mineralocorticoid receptor

| Structure (SMILES) | IC50 (Glucocorticoid receptor) [nM] | other results |
| --- | --- | --- |
| CC(Cc1c[nH]c2ccccc12)NC(=O)Nc1c(Cl)cc(Cl)cc1Cl (stereo unspecified) | > 2000 | – |
| COc1ccc(S(=O)(=O)NC(C)Cc2c[nH]c3ccccc23)cc1 (stereo unspecified) | > 10000 | – |
| CC(Cc1c[nH]c2ccccc12)NS(=O)(=O)c1cccc(C#N)c1 (stereo unspecified) | > 10000 | – |
| COC(=O)[C@H](Cc1c[nH]c2ccccc12)NS(=O)(=O)c1c(C)cc(C)cc1C | > 2000 | – |
| CC(Cc1c[nH]c2ccccc12)NS(=O)(=O)c1ccccc1Cl (stereo unspecified) | 4100 | – |
| CC(Cc1c[nH]c2ccccc12)NS(=O)(=O)c1cccc(Cl)c1 (stereo unspecified) | 4100 | – |
| Cc1cc(C)c(S(=O)(=O)NC(C)Cc2cc3ccccc3[nH]2)c(C)c1 (stereo unspecified) | > 2000 | – |
| Cc1ccc(S(=O)(=O)NC(C)Cc2c[nH]c3ccccc23)cc1 (stereo unspecified) | 5700 | – |
| COc1ccc2[nH]cc(CC(C)NS(=O)(=O)c3c(Cl)cc(Cl)cc3Cl)c2c1 (stereo unspecified) | > 2000 | – |
| CC(Cc1c[nH]c2ccccc12)NS(=O)(=O)c1cc(Cl)cc(Cl)c1O (stereo unspecified) | > 10000 | – |
| CC(Cc1c[nH]c2ccccc12)NS(=O)(=O)c1ccc(Cl)c(Cl)c1 (stereo unspecified) | 6900 | – |
| Cc1cc(C)c(S(=O)(=O)N[C@H](C)Cc2c[nH]c3ccccc23)c(C)c1 | > 2000 | IC50 (Progesterone receptor): > 2000 nM; IC50 [1]: 520 nM |
| CC(Cc1c[nH]c2ccccc12)NS(=O)(=O)c1ccc(C(C)(C)C)cc1 (stereo unspecified) | 735 | IC50 (Progesterone receptor): > 2000 nM; IC50 [1]: 1070 nM |
| CC(Cc1c[nH]c2ccccc12)NS(=O)(=O)c1ccc([N+](=O)[O-])cc1 (stereo unspecified) | > 10000 | – |
| CC(=O)Nc1ccc(S(=O)(=O)NC(C)Cc2c[nH]c3ccccc23)cc1 (stereo unspecified) | > 10000 | – |
| Cc1cc(C)c(S(=O)(=O)NCCc2c[nH]c3ccccc23)c(C)c1 | > 2000 | – |
| CC(Cc1c[nH]c2ccccc12)NS(=O)(=O)c1ccccc1[N+](=O)[O-] (stereo unspecified) | > 10000 | – |
| CC(Cc1c[nH]c2ccccc12)NS(=O)(=O)c1ccccc1 (stereo unspecified) | > 10000 | – |
| CC(Cc1c[nH]c2ccccc12)NS(=O)(=O)c1cc(F)c(Br)cc1F (stereo unspecified) | 3600 | – |
| C[C@@H]1C[C@H]2[C@@H]3CCC4=CC(=O)C=C[C@]4(C)[C@@]3(F)[C@@H](O)C[C@]2(C)[C@@]1(O)C(=O)CO [DEXAMETHASONE] | – | IC50 (Progesterone receptor): > 2000 nM |
| CC(Cc1cn(C)c2ccccc12)NS(=O)(=O)c1c(Cl)cc(Cl)cc1Cl (stereo unspecified) | > 2000 | – |
| Cc1cc(C)c(C(=O)NC(C)Cc2c[nH]c3ccccc23)c(C)c1 (stereo unspecified) | > 2000 | – |
| Cc1cccc(S(=O)(=O)NC(C)Cc2c[nH]c3ccccc23)c1 (stereo unspecified) | > 10000 | – |
| COC(=O)[C@@H](Cc1c[nH]c2ccccc12)NS(=O)(=O)c1c(C)cc(C)cc1C | > 2000 | – |
| CC(Cc1c[nH]c2ccccc12)NS(=O)(=O)c1cc(Cl)cc(Cl)c1 (stereo unspecified) | 4600 | – |
| CC(Cc1c[nH]c2ccccc12)NS(=O)(=O)c1ccc(C(C)C)cc1 (stereo unspecified) | 750 | IC50 (Progesterone receptor): 1000 nM; IC50 [1]: 1400 nM |
| CC(Cc1c[nH]c2ccccc12)NS(=O)(=O)c1c(Cl)cccc1Cl (stereo unspecified) | 240 | Ratio IC50 (Homo sapiens [3]): 6; IC50 (Progesterone receptor): 170 nM; IC50 [1]: 1600 nM |
| Cc1cc(C)c(S(=O)(=O)NC(CO)Cc2c[nH]c3ccccc23)c(C)c1 (stereo unspecified) | > 2000 | – |
| Cc1cc(C)c(CNC(C)Cc2c[nH]c3ccccc23)c(C)c1 (stereo unspecified) | > 2000 | – |

Continued by falling IC50 (Glucocorticoid receptor), values first:

| IC50 (Glucocorticoid receptor) [nM] | Structure (SMILES) | other results |
| --- | --- | --- |
| 2600 | CC(Cc1c[nH]c2ccccc12)NS(=O)(=O)c1ccc(-c2ccccc2)cc1 (stereo unspecified) | – |
| 2100 | CC(Cc1c[nH]c2ccccc12)NS(=O)(=O)c1ccc(Cl)cc1 (stereo unspecified) | – |
| 1900 | CC(Cc1c[nH]c2ccccc12)NS(=O)(=O)c1ccc(Cl)c(Cl)c1Cl (stereo unspecified) | – |
| 1800 | Cc1cc(S(=O)(=O)NC(C)Cc2c[nH]c3ccccc23)c(C)cc1Cl (stereo unspecified) | – |
| 1600 | CCCc1ccc(S(=O)(=O)NC(C)Cc2c[nH]c3ccccc23)cc1 (stereo unspecified) | – |
| 1300 | Cc1cc(C)c(S(=O)(=O)N(C)C(C)Cc2c[nH]c3ccccc23)c(C)c1 (stereo unspecified) | – |
| 1300 | CC(Cc1c[nH]c2ccccc12)NS(=O)(=O)c1cc(Cl)ccc1Cl (stereo unspecified) | – |
| 1200 | CC(Cc1c[nH]c2ccccc12)NS(=O)(=O)c1cccc(Cl)c1Cl (stereo unspecified) | – |
| 990 | CC(Cc1c[nH]c2ccccc12)NS(=O)(=O)c1cc(Cl)c(Cl)cc1Cl (stereo unspecified) | IC50 (Progesterone receptor): 440 nM; IC50 [1]: 1000 nM |
| 820 | Cc1c(Cl)cccc1S(=O)(=O)NC(C)Cc1c[nH]c2ccccc12 (stereo unspecified) | – |
| 570 | Cc1[nH]c2ccccc2c1CC(C)NS(=O)(=O)c1c(Cl)cc(Cl)cc1Cl (stereo unspecified) | – |
| 490 | Cc1cc(C)c(S(=O)(=O)NC(C)Cc2c[nH]c3cc(C)ccc23)c(C)c1 (stereo unspecified) | – |
| 480 | CC(Cc1c[nH]c2ccccc12)NS(=O)(=O)c1ccc(Cl)cc1Cl (stereo unspecified) | IC50 (Progesterone receptor): > 2000 nM; IC50 [1]: 850 nM |
| 280 | Cc1cccc(Cl)c1S(=O)(=O)NC(C)Cc1c[nH]c2ccccc12 (stereo unspecified) | – |
| 120 | Cc1cc(C)c(S(=O)(=O)NC(C)Cc2c[nH]c3c(C)cccc23)c(C)c1 (stereo unspecified) | – |
| 79 | Cc1cc(C)c(S(=O)(=O)NC(C)Cc2c[nH]c3cc(F)ccc23)c(C)c1 (stereo unspecified) | – |
| 67 | CC(Cc1c[nH]c2ccccc12)NS(=O)(=O)c1c(C(C)C)cc(C(C)C)cc1C(C)C (stereo unspecified) | IC50 (Progesterone receptor): > 2000 nM; IC50 [1]: > 2000 nM |
| 65 | Cc1cc(C)c(S(=O)(=O)NC(C)Cc2c[nH]c3ccc(F)cc23)c(C)c1 (stereo unspecified) | – |
| 64 | CCC(Cc1c[nH]c2ccccc12)NS(=O)(=O)c1c(Cl)cc(Cl)cc1Cl (stereo unspecified) | – |
| 64 | CC(Cc1c[nH]c2ccccc12)NS(=O)(=O)c1c(Cl)cc(Cl)cc1Cl (stereo unspecified) | Ratio IC50 (Homo sapiens [2]): 8; IC50 (Progesterone receptor): 570 nM; IC50 [1]: 130 nM |
| 40 | Cc1cc(C)c(S(=O)(=O)NC(C)Cc2c[nH]c3ccccc23)c(C)c1 (stereo unspecified) | Ratio IC50 (Homo sapiens [2]): 35; Ratio IC50 (Homo sapiens [3]): 7; IC50 (Progesterone receptor): 1400 nM; IC50 [1]: 290 nM |
| 29 | Cc1cc(C)c(S(=O)(=O)N[C@@H](C)Cc2c[nH]c3ccccc23)c(C)c1 | Ratio IC50 (Homo sapiens [3]): 34; IC50 (Progesterone receptor): 1200 nM; IC50 [1]: 1000 nM |
